# Assay results: patent publication US20260015574A1, “METHODS FOR SHORTENING LAG PHASE DURATION IN MICROORGANISMS” (YEDA RESEARCH AND DEVELOPMENT CO. LTD., priority 2022, published 2026)
# Columns and labels:
# P. inhibens = test: Lag phase metabolomics with 13C-labeled DMSP; format: cell-based, Phaeobacter inhibens; conditions: 50 μM 13C-labeled DMSP, two hours, LC/MS
# Protocol: DMSP was synthesized in which both S-methyl groups are ^13C-labeled, using the protocol of Wirth and Whitman (2018). Freshly initiated P. inhibens cultures (OD 0.01, ASW+CNS medium) were treated with 50 μM 13C-labeled DMSP and compared to reference cultures with non-labeled DMSP. Bacterial cells were harvested and extracted two hours after adding DMSP. The incorporation of the 13C label was analyzed by LC/MS (FIG. 12).
# To further elucidate the fate of methyl groups, the inventors analyzed the transcriptome of DMSP-treated P. inhibens bacteria during the lag phase, and compared it to untreated control cultures. […] To further establish that DMSP methyl groups are assimilated via the methionine cycle, the inventors measured the methionine synthesis activity in protein crude extracts of stationary bacterial cells, using a biochemical assay followed by LC/MS analysis. […] Taken together, the inventors established that DMSP methyl groups are assimilated during the lag phase via the methionine cycle.
# [1] = test system: Phaeobacter inhibens DSM 17395; test: Growth / lag phase shortening assay of P. inhibens pure cultures with glucose; format: cell-based; conditions: for lag phase shortening effect (Δlag time) of panel compounds: 1 mM glucose and 2 μM of the respective compound
# Protocol: ASW was adjusted to pH 8 using HCl. If not otherwise stated, the medium was further supplemented with a source of carbon (glucose, 1 mM), nitrogen (NH4Cl, 5 mM), and sulfur (Na2SO4, 33 mM), referred to as ASW+CNS. […] A 96-well Tecan Infinite M Plex plate reader was used for high-resolution monitoring of bacterial growth dynamics at 30° C. An ImageStreamX Flow Imager system (Amnis) was used to characterize bacterial populations during the lag phase (FIG. 6). The growth of bacteria in co-culture with algae was monitored by counting colony forming units (CFU) on ½ YTSS agar plates. The growth of algae was monitored with a CellStream flow cytometer (Merck, Darmstadt, Germany).
# To test whether methylated compounds affect the growth of bacteria, the inventors cultivated bacterial pure cultures with glucose as main growth substrate and supplemented the medium with the well-studied methylated compound dimethylsulfoniopropionate (DMSP). DMSP that is naturally produced by microalgae and found in detectable levels in seawater, is known to be metabolized by various bacteria. […] To quantify the lag phase shortening effect, the inventors calculated the Δlag time, which is the time difference between the commence of exponential growth in control cultures compared to treated cultures (FIG. 5B).
# To reflect the natural low bacterial abundance in the oligotrophic ocean with low microalgal productivity, the current bacterial growth experiments were routinely initiated with an optical density (OD) of 0.00001. Such low initial ODs challenge the detection of cell divisions that occur prior to reaching an OD of at least 0.001, which is the theoretical limit of detection. To determine the actual length of the lag phase, the inventors analyzed bacterial cultures using imagining flow cytometry.
# E. coli = test: Lag phase shortening in E. coli; format: cell-based, Escherichia coli
# Description: (§1) To explore whether lag phase shortening is a general mechanism among bacteria, the inventors tested the effect of methylated compounds in bacteria with different lifestyles. […] Since methylated compounds are a hallmark of photosynthesizing organisms, the inventors next tested a variety of bacteria that are plant-associated. […] Finally, to establish the prevalence of lag phase shortening among bacteria, the inventors tested the model bacterium E. coli. This bacterium is not commonly found associated with photosynthesizing organisms, and thus, is unlikely to respond to algal metabolites. […] The synchrony between specific compounds and different groups of bacteria may reflect the natural context […].
# [2] = test system: opportunistic pathogens, found in both plants and humans; test: Lag phase shortening in opportunistic pathogens found in plants and humans; format: cell-based
# Description: as §1
# [3] = test system: Bacillus subtilis strain 168; test: Lag phase shortening in B. subtilis; format: cell-based
# Protocol: The bacterial strain Phaeobacter inhibens DSM 17395 was purchased from the German collection of microorganisms and cell cultures (DSMZ, Braunschweig, Germany) and stored at −80° C. with 20% glycerol. Routine cultivation of P. inhibens was conducted at 30° C. in artificial seawater medium (ASW) based on Goyet and Poisson (1989). The ASW medium contained mineral salts (NaCl, 409.41 mM; Na2SO4, 28.22 mM; KCl, 9.08 mM; KBr, 0.82 mM; NaF, 0.07 mM; Na2CO3, 0.20 mM; NaHCO3, 2 mM; MgCl2, 50.66 mM; SrCl2, 0.09 mM), L1 vitamins (thiamine HCl, 100 μg/L; biotin, 0.5 μg/L; vitamin B12, […]), L1 trace elements (Na2EDTA·2H2O, 4.36 mg/L; FeCl3·6H2O, 3.15 mg/L; MnCl2·4H2O, 178.1 μg/L; ZnSO4·7H2O, 23.0 μg/L; CoCl2·6H2O, 11.9 μg/L; CuSO4·5H2O, 2.5 μg/L; Na2MoO4·2H2O, 19.9 μg/L; H2SeO3, 1.29 μg/L; NiSO4·6H2O, 2.63 μg/L; Na3 VO4, 1.84 μg/L; K2CrO4, 1.94 μg/L), and L1 nutrients (NaNO3, 882 μM; NaH2PO4, 36.22 μM). ASW was adjusted to pH 8 using HCl. If not otherwise stated, the medium was further supplemented with a source of carbon (glucose, 1 mM), nitrogen (NH4Cl, 5 mM), and sulfur (Na2SO4, 33 mM), referred to as ASW+CNS. Methylated effector compounds (e.g., donors) were administered at 1 or 2 μM in routine assays, or in higher concentrations as stated. The bacterium Bacillus subtilis strain 168 was cultivated in M9 Medium (Na2HPO4, 6 g/L; KH2PO4, 3 g/L; NaCl, 0.5 g/L; NH4CL, 1 g/L; CaCl2), 100 µM; MgSO4, 1 mM; Thiamine, 5 mg/L; EDTA, 50 mg/L; FcCl3, 4.98 mg/L; ZnCl2, 0.84 mg/L; CuCl2·2H2O, 0.13 mg/L; CoCl2·6H2O, 0.1 mg/L; H3BO3, 0.1 mg/L; MnCl2·4H2O, 0.016 mg/L; pH 7.1) with 20 mM glucose. Other bacterial strains tested for lag phase shortening were isolated from the marine environment (Despotović et al., 2021), and cultivated in ASW+CNS. A 96-well Tecan Infinite M Plex plate reader was used for high-resolution monitoring of bacterial growth dynamics at 30° C. […] The growth of bacteria in co-culture with algae was monitored by counting colony forming units (CFU) on ½ YTSS agar plates. The growth of algae was monitored with a CellStream flow cytometer (Merck, Darmstadt, Germany). […]
# [4] = test system: bacteria that are plant-associated; test: Lag phase shortening in plant-associated bacteria; format: cell-based
# Description: as §1
# [5] = test system: P. inhibens mttB1 KO mutant; test: Lag phase shortening in mttB1 knockout mutant; format: cell-based, Phaeobacter inhibens
# Protocol: (§2) For creation of P. inhibens knockout cells, ˜1,000 bp regions upstream and downstream of the gene of interest were amplified by PCR (Phusion High-Fidelity DNA polymerase, Thermo Scientific), using primers that added homologous regions to gentamycin or kanamycin resistance markers. The fragments were assembled and cloned into the TOPOII vector (Invitrogen) using restriction-free cloning (Peleg Y. & Unger T., 2014), generating a knockout (KO) plasmid. P. inhibens electrocompetent cells (300 μl) were transformed with 10 μg of the constructed KO plasmid by a pulse of 1.8 kV (Bio Rad). Cells were selected on ½YTSS agar plates containing 30 μg/ml gentamycin or 150 μg/ml kanamycin. Successful knockouts in single cell clones were verified by PCR and sanger sequencing.
# The inventors further sought to better understand why methyl groups shorten the bacterial lag phase. The inventors list at least three cellular scenarios which could explain the effect that methylated compounds have on the lag phase: (1) methyl groups might be a limiting resource; (2) methyl groups might act as a signal that triggers a cellular cascade, which culminates in lag phase shortening; and (3) methylated compounds could accumulate intracellularly and function as osmoprotectants and antioxidants. […]
# [6] = test system: marine bacterium Vibrio sp.; test: Lag phase shortening in Vibrio sp.; format: cell-based; conditions: 2 μM compound
# Protocol: (§3) The bacterial strain Phaeobacter inhibens DSM 17395 was purchased from the German collection of microorganisms and cell cultures (DSMZ, Braunschweig, Germany) and stored at −80° C. with 20% glycerol. Routine cultivation of P. inhibens was conducted at 30° C. in artificial seawater medium (ASW) based on Goyet and Poisson (1989). The ASW medium contained mineral salts (NaCl, 409.41 mM; Na2SO4, 28.22 mM; KCl, 9.08 mM; KBr, 0.82 mM; NaF, 0.07 mM; Na2CO3, 0.20 mM; NaHCO3, 2 mM; MgCl2, 50.66 mM; SrCl2, 0.09 mM), L1 vitamins (thiamine HCl, 100 μg/L; biotin, 0.5 μg/L; vitamin B12, […]), L1 trace elements (Na2EDTA·2H2O, 4.36 mg/L; FeCl3·6H2O, 3.15 mg/L; MnCl2·4H2O, 178.1 μg/L; ZnSO4·7H2O, 23.0 μg/L; CoCl2·6H2O, 11.9 μg/L; CuSO4·5H2O, 2.5 μg/L; Na2MoO4·2H2O, 19.9 μg/L; H2SeO3, 1.29 μg/L; NiSO4·6H2O, 2.63 μg/L; Na3 VO4, 1.84 μg/L; K2CrO4, 1.94 μg/L), and L1 nutrients (NaNO3, 882 μM; NaH2PO4, 36.22 μM). ASW was adjusted to pH 8 using HCl. […] A 96-well Tecan Infinite M Plex plate reader was used for high-resolution monitoring of bacterial growth dynamics at 30° C. […] The growth of bacteria in co-culture with algae was monitored by counting colony forming units (CFU) on ½ YTSS agar plates. The growth of algae was monitored with a CellStream flow cytometer (Merck, Darmstadt, Germany). […]
# Various marine bacteria = test: Lag phase shortening in various marine bacteria; format: cell-based; conditions: minute amounts of compound
# Protocol: as §3
# P. inhibens Δbmt mutant = test: Growth and lag phase shortening in Δbmt mutant; format: cell-based, Phaeobacter inhibens; conditions: minimal media, addition of 200 μM methionine
# Protocol: as §2
compound,measurement,setting,value
[13CH3][S+]([13CH3])CCC(=O)[O-] [13C-labeled DMSP],metabolic fate of DMSP methyl groups (13C label incorporation),P. inhibens,converted into SAM
"C[S+](C)CC(=O)[O-] [DMSA, dimethylsulfonioacetate]",lag phase shortening effect (Δlag time) of panel compounds,[1],most pronounced
"C[S+](C)CC[C@H](N)C(=O)O [SMM, S-methyl-L-methionine]",Δlag time,"E. coli; E. coli BL21, 2 μM SMM (FIG. 17C)",Δlag time of one hour
same,lag phase shortening,E. coli; modified strains BL21(DE3) and DH5α,this effect was observed
same,lag phase shortening,E. coli; wild-type strain K12,only showed this effect upon addition of greater SMM concentrations
same,lag phase shortening,[2],shorten their lag phase
"COc1cc(Cc2cnc(N)nc2N)cc(OC)c1OC [Trimethoprim, reference compound]",growth of P. inhibens in the presence of the THF inhibitor,[1],cannot grow unless the culture is supplemented with nucleotides
"C[N+](C)(C)CC(=O)O [betaine, glycine betaine]",lag phase shortening,E. coli; treatment with algal metabolites,did not shorten the lag phase
same,lag phase shortening,[3]; 2 μM compound,induction of the lag phase shortening
same,Δlag time,[3]; FIG. 17B,7 h
same,lag phase shortening,[4],significant shortening of the lag phase
same,lag phase shortening,[5],does not shorten the lag phase
same,lag phase shortening,[6],induction of the lag phase shortening
same,lag phase shortening effect (Δlag time) of panel compounds,[1],most pronounced
same,lag phase shortening,Various marine bacteria,marked lag phase shortening
C[N+](C)(C)CC(O)CC(=O)[O-] (centres unmarked) [carnitine],lag phase shortening effect (Δlag time) of panel compounds,[1],most pronounced
C[S+](C)CCC(O)CC(=O)[O-] (centres unmarked) [gonyol],lag phase shortening effect (Δlag time) of panel compounds,[1],most pronounced
CSCC[C@H](N)C(=O)O [methionine],lag phase shortening effect (Δlag time) of panel compounds,[1],prolonged the lag phase
same,growth of the Δbmt mutant,P. inhibens Δbmt mutant,fully recovered
C[N+]1(C)CCC[C@H]1C(=O)[O-] [stachydrine],lag phase shortening effect (Δlag time) of panel compounds,[1],most pronounced
